Measurements taken from patent publication US20110159019A1, “2,4-DIAMINOPYRIMIDINE COMPOUND” (priority 2008, published 2011).
Where two headings read alike, the source gives them in different places.

Tests used:
[1] = target: T1, Cytochrome P450 (CYP3A4) (Homo sapiens, UniProt P08684); assay: Measurement of cytochrome P450 (CYP3A4) enzyme inhibition activity in human liver microsome (inhibition tests I and II, midazolam substrate); format: in vitro ADME; settings: for I (%) Remaining Rate I: inhibition test I: 5 μM test compound, 2 μM midazolam, human liver microsome, 37° C. 20 minutes, no preincubation; for II (%) Remaining Rate II: inhibition test II: 5 μM test compound preincubated 30 minutes with human liver microsome and NADPH, then 2 μM midazolam 20 minutes, relative to test I
T1 construct: human liver microsome (0.1 mg protein/mL); from tissue; host or cells: human liver microsomes
T1 sequence (P08684 whole entry): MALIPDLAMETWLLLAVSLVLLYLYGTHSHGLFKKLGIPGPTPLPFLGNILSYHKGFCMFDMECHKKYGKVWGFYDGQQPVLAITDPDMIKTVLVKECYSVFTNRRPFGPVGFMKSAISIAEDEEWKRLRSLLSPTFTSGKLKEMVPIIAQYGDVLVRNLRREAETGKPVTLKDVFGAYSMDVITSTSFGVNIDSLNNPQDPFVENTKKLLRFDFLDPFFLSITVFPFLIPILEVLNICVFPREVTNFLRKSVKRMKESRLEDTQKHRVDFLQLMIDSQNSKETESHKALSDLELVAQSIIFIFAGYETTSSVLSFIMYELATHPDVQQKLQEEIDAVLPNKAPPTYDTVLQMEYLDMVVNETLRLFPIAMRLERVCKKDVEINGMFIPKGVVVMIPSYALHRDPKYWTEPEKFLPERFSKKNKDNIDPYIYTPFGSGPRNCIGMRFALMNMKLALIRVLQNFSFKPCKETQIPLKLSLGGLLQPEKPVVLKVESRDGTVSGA
Method: Test Method 3: Measurement of Cytochrome P450 (CYP3A4) Enzyme Inhibition Activity i) Inhibition Test I (Calculation of Remaining Rate I)
Using a 96-well plate, 2 μM of a substrate (midazolam), 5 μM of a test compound, and human liver microsome (0.1 mg protein/mL) were incubated at 37° C. for 20 minutes in a total amount of 150 μL of a 100 mM phosphate buffer (pH 7.4) containing 0.1 mM EDTA and 1 mM NADPH. Then, the reaction was stopped by adding 130 μl of an aqueous solution containing 80% acetonitrile. Thereafter, the samples were analyzed by LC/MS/MS, and the remaining rates I were calculated using the following equation 1.
Remaining Rate I(%)=Ai,I/Ao,I×100 (Equation 1)
Ai, I=Amount of produced metabolite after reaction in the presence of the test compound in the inhibition test I Ao, I=Amount of produced metabolite after reaction in the absence of the test compound in the inhibition test I ii) Inhibition Test II (Calculation of Remaining Rate II)
Using a 96-well plate, 5 μM of a test compound and human liver microsome (0.1 mg protein/mL) were incubated at 37° C. for 30 minutes in a total amount of 145 μL of a 100 mM phosphate buffer (pH=7.4) containing 0.1 mM EDTA and 1 mM NADPH. Then, 2 μM of midazolam as the substrate was added thereto at a total amount of 150 μL of and incubated at 37° C. for 20 minutes. After the incubation, the reaction was stopped by adding 130 μL of an aqueous solution containing 80% acetonitrile. Thereafter, the samples were analyzed by LC/MS/MS, and the remaining rate II was calculated using the following equation 2.
Remaining Rate II(%)=Ai,II/Ao,II/(Ai,I/Ao,I)×100 (Equation 2)
Ai, II=Amount of produced metabolite after reaction in the presence of the test compound in the inhibition test II […]=Amount of produced metabolite after reaction in the absence of the test compound in the inhibition test II […]
Ex represents No. of the Example Compounds as described below.

[2] = target: T2, Full-length human PKCθ (Homo sapiens, UniProt Q04759); assay: Measurement of human PKCθ enzyme inhibition activity (HTRF KinEASE S1 kit); format: biochemical
T2 construct: Full-length human PKCθ (Carna Biosciences, final 31 ng/mL); purchased Carna Biosciences
T2 sequence (Q04759 whole entry): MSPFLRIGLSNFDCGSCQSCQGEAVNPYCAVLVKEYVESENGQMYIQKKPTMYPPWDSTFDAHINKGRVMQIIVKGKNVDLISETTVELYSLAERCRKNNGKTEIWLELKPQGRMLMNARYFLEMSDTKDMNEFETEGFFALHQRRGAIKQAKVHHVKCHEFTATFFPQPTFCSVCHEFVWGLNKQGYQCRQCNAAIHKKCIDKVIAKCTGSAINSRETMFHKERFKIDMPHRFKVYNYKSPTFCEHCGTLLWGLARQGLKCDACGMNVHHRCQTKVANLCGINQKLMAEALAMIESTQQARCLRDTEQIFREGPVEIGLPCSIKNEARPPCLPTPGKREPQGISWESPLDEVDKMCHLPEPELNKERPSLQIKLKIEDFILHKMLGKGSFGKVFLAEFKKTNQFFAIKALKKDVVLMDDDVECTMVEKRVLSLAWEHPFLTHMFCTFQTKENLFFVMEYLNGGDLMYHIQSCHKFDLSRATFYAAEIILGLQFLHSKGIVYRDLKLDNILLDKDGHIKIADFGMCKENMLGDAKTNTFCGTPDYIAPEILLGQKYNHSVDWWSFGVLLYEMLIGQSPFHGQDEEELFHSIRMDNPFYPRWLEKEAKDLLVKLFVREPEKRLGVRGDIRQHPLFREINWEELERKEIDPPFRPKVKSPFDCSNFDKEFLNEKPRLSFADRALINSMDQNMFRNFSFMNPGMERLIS
Method: Test Method 1: Measurement of Human PKCθ Enzyme Inhibition Activity
The test was carried out using a HTRF® KinEASE™ S1 kit (CIS bio). […] Then, 3 μL of an ATP liquid (final 30 μM) was dispensed therein to carry out an enzyme reaction at room temperature for 1 hour.
Ex represents Compound No. of Examples as described later.

[3] = full-length human PKCθ, ATP 30 μM, HTRF, read-out: IC50 (nM), human PKCθ enzyme inhibition

Q: What does the source list for `N#Cc1cnc(NCc2ccccc2OC(F)(F)F)nc1NC[C@]12CC3C[C@H](C1)[C@H](N[C@H]1CC[C@H](O)CC1)[C@@H](C3)C2` (relative stereo) [Example 41, rel-4-[({(1R,3S,4R,5R)-4-[(trans-4-hydroxycyclohexyl)amino]adamantan-1-yl}methyl)amino]-2-{[2-(trifluoromethoxy)benzyl]amino}pyrimidine-5-carbonitrile]?
A: I (%) Remaining Rate I [1]: 80%; II (%) Remaining Rate II [1]: 102%; IC50 [2, 3]: 14 nM

Q: `CSc1ccccc1CNc1ncc(C#N)c(NC[C@]23CC4C[C@H](C2)[C@@H](N[C@H]2CC[C@H](O)CC2)[C@@H](C4)C3)n1` (relative stereo) [Example 43, rel-4-[({(1R,3S,4R,5R)-4-[(trans-4-hydroxycyclohexyl)amino]adamantan-1-yl]methyl)amino}-2-{[2-(methylsulfanyl)benzyl]amino}pyrimidine-5-carbonitrile] was tested. Which “I (%) Remaining Rate I” value [1] did it give?
A: 76%

Q: What about the “II (%) Remaining Rate II” value [1] of the same molecule?
A: 99%

Q: And the IC50 [2, 3]?
A: 0.44 nM

Q: What does the source list for `COc1ccccc1CNc1ncc(C#N)c(NC[C@]23CC4C[C@H](C2)[C@@H](NCC[C@H](O)CO)[C@@H](C4)C3)n1` (relative stereo) [Example 195]?
A: I (%) Remaining Rate I [1]: 88%; II (%) Remaining Rate II [1]: 82%; IC50 [2, 3]: 3.3 nM

Q: With `COc1ccccc1CNc1ncc(C#N)c(NC[C@]23CC4C[C@H](C2)[C@@H](N2CC(CO)(CO)C2)[C@@H](C4)C3)n1` (relative stereo) [Example 196] as the molecule, how does the “I (%) Remaining Rate I” value [1] read?
A: 86%

Q: What about the “II (%) Remaining Rate II” value [1] of the same molecule?
A: 87%

Q: And the IC50 [2, 3]?
A: 3.9 nM

Q: `CSc1ccccc1CNc1ncc(C#N)c(NC[C@]23CC4C[C@H](C2)[C@@H](NCC[C@H](O)CO)[C@@H](C4)C3)n1` (relative stereo) [Example 200] was tested. Which “I (%) Remaining Rate I” value [1] did it give?
A: 95%

Q: What about the “II (%) Remaining Rate II” value [1] of the same molecule?
A: 85%

Q: What about the IC50 [2, 3] of the same molecule?
A: 0.28 nM

Q: With `N#Cc1cnc(NCc2ccccc2Cl)nc1NC[C@]12CC3C[C@H](C1)[C@@H](NC[C@H]1CC[C@H](O)CC1)[C@@H](C3)C2` (relative stereo) [Example 340] as the molecule, how does the “I (%) Remaining Rate I” value [1] read?
A: 91%

Q: And the “II (%) Remaining Rate II” value [1]?
A: 83%

Q: And the IC50 [2, 3]?
A: 1.4 nM

Q: Which results are given for `CSc1ncccc1CNc1ncc(C#N)c(NC[C@]23CC4C[C@H](C2)[C@@H](NC[C@H]2CC[C@H](O)CC2)[C@@H](C4)C3)n1` (relative stereo) [Example 344]?
A: I (%) Remaining Rate I [1]: 89%; II (%) Remaining Rate II [1]: 84%; IC50 [2, 3]: 0.48 nM

Q: Which results are given for `C[C@]1(O)CC[C@H](CN[C@@H]2[C@@H]3CC4C[C@H]2C[C@@](CNc2nc(NCc5ccccc5OC(F)F)ncc2C#N)(C4)C3)CC1` (relative stereo) [Example 372]?
A: I (%) Remaining Rate I [1]: 78%; II (%) Remaining Rate II [1]: 84%; IC50 [2, 3]: 1.22 nM

Q: For `N#Cc1cnc(NCc2ccccc2Cl)nc1NC[C@]12CC3C[C@H](C1)[C@@H](NC[C@H]1CC[C@@H](O)CC1)[C@@H](C3)C2` (relative stereo) [Example 401], which “I (%) Remaining Rate I” value [1] is on record?
A: 84%

Q: What about the “II (%) Remaining Rate II” value [1] of the same molecule?
A: 89%

Q: What about the IC50 [2, 3] of the same molecule?
A: 0.65 nM

Q: Which “I (%) Remaining Rate I” value [1] does the source give for `COc1ccccc1CNc1ncc(C#N)c(NC[C@]23CC4C[C@H](C2)[C@@H](N(C)CCCCO)[C@@H](C4)C3)n1` [Example 107] here?
A: 77%

Q: What about the “II (%) Remaining Rate II” value [1] of the same molecule?
A: 84%

Q: And the IC50 [2, 3]?
A: 5.4 nM

Q: `CN([C@H]1CC[C@H](O)CC1)[C@@H]1[C@@H]2CC3C[C@H]1C[C@@](CNc1nc(NCc4ccccc4OC(F)(F)F)ncc1C#N)(C3)C2` [Example 115] was tested. Which “I (%) Remaining Rate I” value [1] did it give?
A: 75%

Q: And the “II (%) Remaining Rate II” value [1]?
A: 90%

Q: What about the IC50 [2, 3] of the same molecule?
A: 3.5 nM

Q: `N#Cc1cnc(NCc2ccccc2Cl)nc1NC[C@]12CC3C[C@H](C1)[C@@H](NC1CCNCC1)[C@@H](C3)C2` [Example 169] was tested. Which “I (%) Remaining Rate I” value [1] did it give?
A: 83%

Q: What about the “II (%) Remaining Rate II” value [1] of the same molecule?
A: 89%

Q: What about the IC50 [2, 3] of the same molecule?
A: 0.36 nM

Q: Which “I (%) Remaining Rate I” value [1] does the source give for `N#Cc1cnc(NCc2ccccc2Cl)nc1NC[C@]12CC3C[C@H](C1)[C@@H](NCC1CCN(CCF)CC1)[C@@H](C3)C2` [Example 219] here?
A: 76%

Q: And the “II (%) Remaining Rate II” value [1]?
A: 94%

Q: What about the IC50 [2] of the same molecule?
A: 0.4 nM

Q: For `N#Cc1cnc(NCc2ccccc2OC(F)(F)F)nc1NC[C@]12CC3C[C@H](C1)[C@@H](N[C@H]1CC[C@@H](N)CC1)[C@@H](C3)C2` [Example 303], which “I (%) Remaining Rate I” value [1] is on record?
A: 75%

Q: What about the “II (%) Remaining Rate II” value [1] of the same molecule?
A: 88%

Q: What about the IC50 [2, 3] of the same molecule?
A: 0.065 nM

Q: `N#Cc1cnc(NCc2ccccc2Cl)nc1NC[C@]12CC3C[C@H](C1)[C@@H](NCC1CCNCC1)[C@@H](C3)C2` [Example 321] was tested. Which “I (%) Remaining Rate I” value [1] did it give?
A: 90%

Q: What about the “II (%) Remaining Rate II” value [1] of the same molecule?
A: 92%

Q: What about the IC50 [2, 3] of the same molecule?
A: 0.25 nM
